The record followed here is ChEMBL document CHEMBL1201862, “PubChem BioAssay data set” (2004).

Some test systems named below: HOP-18; DMS-114; SNB-78; KM-20L2; XF498; LXFL 529; RXF 631; DMS-273; DLD-1.
Test in all cases: NCI-60 cell line screen, 48 h

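Each compound was tested at five concentrations against cells in 96-well plates for 48 hours. The concentration for 50% growth inhibition is given as GI50.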 The source made the active and inactive calls. Rule as the data show it: active = GI50 up to about 1.1 µM and inactive = higher. Some results are limits rather than exact numbers.

With `COc1ccc(-c2c(N)[n+]([O-])c3cc(C)c(C)cc3[n+]2[O-])cc1OC`, the GI50 in the assay with HOP-18 was 28.8 µM (inactive); with DMS-114, 25.5 µM (inactive); in the assay on SNB-78, > 100 µM (inactive); in the assay with KM-20L2, 54.3 µM (inactive); with XF498, > 100 µM (inactive); with LXFL 529 it was 58.5 µM (inactive). The GI50 in the assay on RXF 631 was 20.4 µM (inactive); in the assay with DMS-273, 99.3 µM (inactive); in the assay on DLD-1 it was 85.7 µM (inactive).
Turning to `O=c1/c(=C/c2ccccc2[N+](=O)[O-])sc2nnc(-c3cccnc3)n12`, the GI50 in the assay with HOP-18, in the assay on DMS-114, with SNB-78, with KM-20L2, with XF498 and with LXFL 529 was > 100 µM (inactive) each time. Further, the GI50 in the assay on RXF 631, in the assay with DMS-273 and with DLD-1 was > 100 µM (inactive) in each case.
Consider `[O-][n+]1c(-c2ccccc2)oc2ccccc21`, for which the GI50 in the assay with HOP-18 is 6.44 µM (inactive); with DMS-114 it was 3.48 µM (inactive); with SNB-78 it was 41.4 µM (inactive); with KM-20L2, 21.1 µM (inactive); with XF498, 35.6 µM (inactive); in the assay on LXFL 529, 9.04 µM (inactive). The GI50 with RXF 631 is 47 µM (inactive); in the assay on DMS-273, 12.6 µM (inactive); with DLD-1, 7.82 µM (inactive).
Regarding `COc1ccc2ccc3c(c2c1)CN1CCc2cc(OC)c(OC)cc2C1C3` (stereo not drawn), the GI50 in the assay with HOP-18 was > 100 µM (inactive); in the assay with DMS-114 it was > 100 µM (inactive); in the assay with SNB-78, > 100 µM (inactive); in the assay on KM-20L2, > 100 µM (inactive); in the assay with XF498 it was 60.3 µM (inactive); in the assay on LXFL 529, 66.2 µM (inactive). The GI50 in the assay with RXF 631, in the assay with DMS-273 and in the assay on DLD-1 was > 100 µM (inactive) throughout.
`C=C(C)C(=O)/N=C(\N)NC#N`: the GI50 was > 41.8 µM (inactive) in the assay with HOP-18; 30.5 µM (inactive) in the assay with DMS-114; 48.3 µM (inactive) in the assay with SNB-78; 105 µM (inactive) with KM-20L2; 41.8 µM (inactive) in the assay on XF498; 63.4 µM (inactive) in the assay with LXFL 529. Besides, the GI50 was > 100 µM (inactive) in the assay on RXF 631, 44 µM (inactive) in the assay on DMS-273 and 68.9 µM (inactive) with DLD-1.
In the case of `N#Cc1cccc(N2C(=O)C3C4C=CC(C3C2=O)C2C(=O)N(c3cccc(C#N)c3)C(=O)C42)c1` (stereo not drawn), the GI50 was > 65.2 µM (inactive) with HOP-18; 16.3 µM (inactive) in the assay with DMS-114; 12.7 µM (inactive) in the assay on SNB-78; > 100 µM (inactive) in the assay on KM-20L2; 15.5 µM (inactive) with XF498; > 46.5 µM (inactive) with LXFL 529. The GI50 in the assay with RXF 631 is 24.7 µM (inactive); in the assay on DMS-273, 15.2 µM (inactive); with DLD-1, > 46.5 µM (inactive).
With `CSC[S+]([O-])C[C@H](CO)NC(=O)/C=C/c1c(C)[nH]c(=O)[nH]c1=O` (stereo partly drawn), the GI50 in the assay on HOP-18 is 2.85 µM (inactive); in the assay on DMS-114, 0.757 µM (active); with SNB-78, 0.318 µM (active); in the assay on KM-20L2, 0.979 µM (active); in the assay on XF498, 0.214 µM (active); in the assay on LXFL 529 it was 1.96 µM (inactive). The GI50 in the assay on RXF 631 is 2.58 µM (inactive); in the assay with DMS-273 it was 1.43 µM (inactive); in the assay on DLD-1 it was 1.6 µM (inactive).
